This is an account of results in US9879008B2, “2,3,4,6-tetra-substituted benzene-1,5-diamine derivatives, preparation method therefor and medicinal use thereof” (SHANGHAI HAIYAN PHARMACEUTICAL TECHNOLOGY CO., LTD., priority 2014, dated 2018).

One assay has as its target T1, wild-type EGFR kinase (Homo sapiens, UniProt P00533).
T1 construct: purchased Invitrogen PV3872
The assay can be described thus: z-lyte inhibition test against wild-type EGFR kinase.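 Also: reaction volume 10 µL holding 0.8 ng/µL enzyme and 2 µM Tyr04 substrate, with DMSO at 2% once compounds are present.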 The format is biochemical. To be noted: 10 μM ATP, read-out: EGFR WT (IC50/nM).

The next assay has as its system NIH3T3 cell. The assay can be described thus: MTT cytotoxicity against NIH3T3 cells. The format is cell-based. To be noted: Mus musculus, read-out: MTT assay against NIH3T3 cell (IC50/nM).
The test system of the next assay is A431 cells. The assay can be described thus: ELISA assay for cell activity, EGF-treated A431 cells.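 Also: Serum-starved A431 cells, ELISA on lysates read as OD450 minus OD570, inhibition scaled between EGF-stimulated wells (0%) and unstimulated cell control (100%), DMSO 0.5% final.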 It is filed as cell-based. Particulars: Homo sapiens, A-431, compound 1 h, then EGF 45 min.
For the next assay, the system named is H1975 cells. The assay can be described thus: ELISA assay for cell activity of EGFR T790M inhibitor, H1975 cells. Particulars: for Selective inhibitory activities against cell [IC50(A431 cell)/IC50(H1975 cell)]: ELISA, ratio of cell IC50 values; for IC50: Homo sapiens, NCI-H1975, 1 h, read-out: H1975 cell (IC50/nM).
The next assay deals with H1975 cell. The assay can be described thus: MTT cytostatic activity, H1975 cell.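 Also: cells in 96-well plates exposed to compound for 72 h, then given MTT for a further 4 h at 37 °C under 5% CO2.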 The format is cell-based. Particulars: Homo sapiens, NCI-H1975, 72 h, read-out: H1975 cell (IC50/nM).
Setting [1] is: NIH3T3, cytotoxicity, MTT, 72 h.

Each structure is given as a SMILES string. Like-named read-outs stand apart in the source and are kept apart here. A value given as a limit tells only on which side of the number the result lay.

T1 sequence (P00533 25-1210): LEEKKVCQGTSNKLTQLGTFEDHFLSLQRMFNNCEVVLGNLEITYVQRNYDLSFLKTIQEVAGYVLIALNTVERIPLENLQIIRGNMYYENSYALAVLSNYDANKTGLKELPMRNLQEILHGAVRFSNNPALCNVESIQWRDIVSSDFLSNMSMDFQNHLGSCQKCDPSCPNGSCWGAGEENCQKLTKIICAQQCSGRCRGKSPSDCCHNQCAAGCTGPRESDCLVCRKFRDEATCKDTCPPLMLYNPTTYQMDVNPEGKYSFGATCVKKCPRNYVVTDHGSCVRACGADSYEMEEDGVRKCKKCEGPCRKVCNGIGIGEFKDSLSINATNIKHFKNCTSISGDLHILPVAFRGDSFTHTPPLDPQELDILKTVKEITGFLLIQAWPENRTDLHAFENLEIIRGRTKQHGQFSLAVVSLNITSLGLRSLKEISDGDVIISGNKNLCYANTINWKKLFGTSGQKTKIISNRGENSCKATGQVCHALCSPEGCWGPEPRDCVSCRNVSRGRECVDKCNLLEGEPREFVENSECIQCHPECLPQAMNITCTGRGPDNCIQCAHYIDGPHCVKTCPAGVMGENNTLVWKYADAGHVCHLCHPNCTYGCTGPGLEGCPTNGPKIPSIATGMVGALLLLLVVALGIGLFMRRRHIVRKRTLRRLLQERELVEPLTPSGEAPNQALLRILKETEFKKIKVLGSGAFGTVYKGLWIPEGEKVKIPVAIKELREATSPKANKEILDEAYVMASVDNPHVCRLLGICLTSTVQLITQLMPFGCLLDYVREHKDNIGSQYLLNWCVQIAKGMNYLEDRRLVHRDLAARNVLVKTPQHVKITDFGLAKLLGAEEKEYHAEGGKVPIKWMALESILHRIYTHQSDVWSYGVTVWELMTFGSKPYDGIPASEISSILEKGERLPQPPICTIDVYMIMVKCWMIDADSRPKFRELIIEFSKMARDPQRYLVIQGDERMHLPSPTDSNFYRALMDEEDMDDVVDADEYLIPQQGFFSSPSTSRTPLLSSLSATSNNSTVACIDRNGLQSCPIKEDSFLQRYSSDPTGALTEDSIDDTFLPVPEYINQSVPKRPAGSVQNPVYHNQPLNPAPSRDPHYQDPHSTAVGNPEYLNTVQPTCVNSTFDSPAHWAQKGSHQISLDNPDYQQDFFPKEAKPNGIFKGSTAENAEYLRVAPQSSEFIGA

For the molecule `C=CC(=O)Nc1cc(Nc2ncc(Cl)c(OCC3CN(C(C)=O)C3)n2)c(OC)cc1N1CCC(N(C)C)CC1` [Compound J-33], the values for the IC50 on wild-type EGFR kinase and in the assay on NIH3T3 cell (setting [1]) were 597 nM and over 10000 nM, respectively.

On to `C=CC(=O)Nc1cc(Nc2nccc(OC3CCN(S(C)(=O)=O)CC3)n2)c(OC)cc1N(C)CCN(C)C` [Compound J-4, N-(2-((2-(dimethylamino)ethyl)(methyl)amino)-4-methoxy-5-(4-(1-(methylsulfonyl)piperidine-4-oxy)pyrimidine-2-amino)phenyl) acrylamide], for which the IC50 was 52 nM on wild-type EGFR kinase and over 10000 nM in the assay on NIH3T3 cell (setting [1]).

`C=CC(=O)Nc1cc(Nc2nccc(OC3CCN(S(C)(=O)=O)CC3)n2)c(OC)cc1N1CCC(N(C)C)CC1` [Compound J-5, N-(2-(4-(dimethylamino)piperidine-1-yl)-4-methoxy-5-(4-(1-(methylsulfonyl)piperidine-4-oxy)pyrimidine-2-amino)phenyl)acrylamide]: the IC50 at wild-type EGFR kinase is 51 nM; with NIH3T3 cell (setting [1]), over 10000 nM.

As to `C=CC(=O)Nc1cc(Nc2nccc(OC3CN(C(=O)c4ccccc4)C3)n2)c(OC)cc1N(C)CCN(C)C` [Compound J-6], in the assay on NIH3T3 cell (setting [1]), the IC50 is over 10000 nM.

For the molecule `C=CC(=O)Nc1cc(Nc2nccc(OC3CN(c4cnc5c(ccn5C)c4)C3)n2)c(OC)cc1N(C)CCN(C)C` [Compound J-16], in the assay with NIH3T3 cell (setting [1]), the IC50 is over 10000 nM.

For `C=CC(=O)Nc1cc(Nc2ncc(F)c(O[C@H]3CCN(S(C)(=O)=O)C3)n2)c(OC)cc1N1CCC(N(C)C)CC1` [Compound J-52], the IC50 at wild-type EGFR kinase was 47 nM; with A431 cells it was 700 nM; in the assay with H1975 cells, 47 nM; in the assay with NIH3T3 cell (setting [1]), over 10000 nM. In the assay on H1975 cells, the “Selective inhibitory activities against cell [IC50(A431 cell)/IC50(H1975 cell)]” value (“Selective inhibitory activities” for short) is 15.

Turning to `C=CC(=O)Nc1cc(Nc2nccc(OC3CN(c4cnc5ccccc5c4)C3)n2)c(OC)cc1N(C)CCN(C)C` [Compound J-14, N-(2-((2-(dimethylamino)ethyl)(methyl)amino)-4-methoxy-5-(4-(1-(quinoline-3-yl)azetidine-3-oxy)pyrimidine-2-amino)phenyl)acrylamide], the IC50 with NIH3T3 cell (setting [1]) was over 10000 nM.

`C=CC(=O)Nc1cc(Nc2ncc(Cl)c(N[C@@H]3CCCN(CCF)C3)n2)c(OC)cc1N1CCC(N(C)C)CC1` [Compound J-67]: the IC50 on wild-type EGFR kinase worked out at 2 nM.

As to `C=CC(=O)Nc1cc(Nc2nccc(OC3CN(S(=O)(=O)c4ccccc4)C3)n2)c(OC)cc1N1CCC(N(C)C)CC1` [Compound J-9, N-(2-(4-(dimethylamino)piperidine-1-yl)-4-methoxy-5-(4-(1-(phenylsulfonyl)azetidine-3-oxy)pyrimidino)phenyl)acrylamide], the results for the IC50 at wild-type EGFR kinase and with NIH3T3 cell (setting [1]) were 72 nM and over 10000 nM, respectively.

Consider `C=CC(=O)Nc1cc(Nc2nccc(OC3CN(C(=O)c4ccc(C)cc4)C3)n2)c(OC)cc1N(C)CCN(C)C` [Compound J-22], for which the IC50 in the assay with NIH3T3 cell (setting [1]) is over 10000 nM.

For the molecule `C=CC(=O)Nc1cc(Nc2ncc(Cl)c(OC3CN(S(C)(=O)=O)C3)n2)ccc1N1CCC(N(C)C)CC1` [Compound J-76], at wild-type EGFR kinase, the IC50 was 14 nM.

With `C=CC(=O)Nc1cc(Nc2ncc(F)c(O[C@@H]3CCN(S(C)(=O)=O)C3)n2)c(OC)cc1N1CCC(N(C)C)CC1` [Compound J-51], the IC50 at wild-type EGFR kinase was 26 nM; in the assay with A431 cells, 937 nM; in the assay on H1975 cells, 64 nM; in the assay on NIH3T3 cell (setting [1]) it was over 10000 nM. In addition, the “Selective inhibitory activities” value with H1975 cells is reported as 15.

In the case of `C=CC(=O)Nc1cc(Nc2ncc(C#N)c(OC3CN(S(C)(=O)=O)C3)n2)c(OC)cc1N1CCC(N(C)C)CC1` [Compound J-32], the figures for the IC50 on wild-type EGFR kinase and in the assay with NIH3T3 cell (setting [1]) were 11 nM and over 10000 nM, respectively.

For `C=CC(=O)Nc1cc(Nc2ncc(Cl)c(OC3CCN(S(C)(=O)=O)CC3)n2)c(OC)cc1N(C)CCN(C)C` [Compound J-3, N-(5-(5-chloro-4-(1-(methylsulfonyl)piperidine-4-oxy)pyrimidine-2-amino)-2-((2-(dimethylamino)ethyl)(methyl)amino)-4-methoxylphenyl) acrylamide], the results for the IC50 at wild-type EGFR kinase and in the assay on NIH3T3 cell (setting [1]) were 38 nM and over 10000 nM, respectively.

`C=CC(=O)Nc1cc(Nc2nccc(OC3CN(C(C)=O)C3)n2)c(OC)cc1N(C)CCN(C)C` [Compound J-23]: the IC50 on wild-type EGFR kinase is 32 nM; with NIH3T3 cell (setting [1]), over 10000 nM.

Turning to `C=CC(=O)Nc1cc(Nc2nccc(OC3CN(C(=O)c4ccc(C)cc4)C3)n2)c(OC)cc1N1CCC(N(C)C)CC1` [Compound J-24], the IC50 at wild-type EGFR kinase was found to be 119 nM; in the assay on NIH3T3 cell (setting [1]) it was 6000 nM.

`C=CC(=O)Nc1cc(Nc2ncc(Cl)c(N(C)C3CN(S(C)(=O)=O)C3)n2)c(OC)cc1N1CCC(N(C)C)CC1` [Compound J-73]: the IC50 is 24 nM on wild-type EGFR kinase, 494 nM in the assay on A431 cells, 26 nM in the assay on H1975 cells and over 10000 nM in the assay on NIH3T3 cell (setting [1]). Further, the “Selective inhibitory activities” value in the assay on H1975 cells is 19.

For `C=CC(=O)Nc1cc(Nc2ncc(Cl)c(NC3CC3)n2)c(OC)cc1N1CCC(N(C)C)CC1` [Compound J-74], the values for the IC50 on wild-type EGFR kinase, in the assay with A431 cells and in the assay with H1975 cells were 216 nM, 2030 nM and 264 nM, respectively. The “Selective inhibitory activities” value with H1975 cells stood at 7.7.

Regarding `C=CC(=O)Nc1cc(Nc2nccc(OC3CN(c4cnc5c(cnn5C)c4)C3)n2)c(OC)cc1N(C)CCN(C)C` [Compound J-15], the IC50 in the assay on A431 cells was 835 nM; with H1975 cells, 75 nM; in the assay on NIH3T3 cell (setting [1]), over 10000 nM. Besides, in the assay on H1975 cells, the “Selective inhibitory activities” value worked out at 11.1.

Consider `C=CC(=O)Nc1cc(Nc2nccc(OC3CN(c4cnc5c(cnn5C)c4)C3)n2)c(OC)cc1N1CCC(N(C)C)CC1` [Compound J-19], for which the IC50 in the assay with NIH3T3 cell (setting [1]) was over 10000 nM.

As to `C=CC(=O)Nc1cc(Nc2ncc(Cl)c(NC3CCN(S(C)(=O)=O)CC3)n2)c(OC)cc1N1CCC(N(C)C)CC1` [Compound J-69], the values for the IC50 at wild-type EGFR kinase and in the assay with NIH3T3 cell (setting [1]) were 105 nM and over 10000 nM, respectively.

In the case of `C=CC(=O)Nc1cc(Nc2ncc(Cl)c(OC3(C)CN(S(C)(=O)=O)C3)n2)c(OC)cc1N1CCC(N(C)C)CC1` [Compound J-75], the IC50 was 463 nM at wild-type EGFR kinase, over 10000 nM in the assay on A431 cells and 438 nM in the assay with H1975 cells. In addition, the “Selective inhibitory activities” value with H1975 cells is given as over 22.8.

With `C=CC(=O)Nc1cc(Nc2ncc(Cl)c(NC3CN(C(C)=O)C3)n2)c(OC)cc1N1CCC(N(C)C)CC1` [Compound J-61], the figures for the IC50 at wild-type EGFR kinase and in the assay with NIH3T3 cell (setting [1]) were 181 nM and over 10000 nM, respectively.

Regarding `C=CC(=O)Nc1cc(Nc2ncc(Cl)c(OCC3CN(S(C)(=O)=O)C3)n2)c(OC)cc1N1CCC(N(C)C)CC1` [Compound J-34], the IC50 on wild-type EGFR kinase was 113 nM; with NIH3T3 cell (setting [1]) it was over 10000 nM.

Consider `C=CC(=O)Nc1cc(Nc2ncc(Cl)c(N[C@H]3CCCN(CCF)C3)n2)c(OC)cc1N1CCC(N(C)C)CC1` [Compound J-68], for which the IC50 at wild-type EGFR kinase is 41 nM; in the assay on A431 cells, 388 nM; with H1975 cells, 48 nM; with NIH3T3 cell (setting [1]) it was 7600 nM. For the same molecule, in the assay on H1975 cells, the “Selective inhibitory activities” value is reported as 8.1.

Regarding `C=CC(=O)Nc1cc(Nc2nccc(OC3CN(CCF)C3)n2)c(OC)cc1N(C)CCN(C)C` [Compound J-53, N-(2-((2-(dimethylamino)ethyl)(methyl)amino)-5-(4-(1-(2-fluroethyl)azetidine-3-oxy)pyrimidine-2-amino)-4-methoxyphenyl) acrylamide], the IC50 was 225 nM with A431 cells, 30 nM with H1975 cells and over 10000 nM in the assay with NIH3T3 cell (setting [1]). In addition, in the assay with H1975 cells, the “Selective inhibitory activities” value came out at 7.5.

Regarding `CN(C)C/C=C/C(=O)Nc1cc2c(Nc3ccc(F)c(Cl)c3)ncnc2cc1O[C@H]1CCOC1` [BIBW2992, Afatinib, reference compound], the IC50 in the assay with H1975 cell turned out to be 88 nM; in the assay on NIH3T3 cell (NIH3T3, 72 h) it was 2750 nM.

Turning to `C=CC(=O)Nc1cc(Nc2ncc(Cl)c(O[C@H]3CCCN(S(C)(=O)=O)C3)n2)c(OC)cc1N1CCC(N(C)C)CC1` [Compound J-42], the IC50 in the assay on NIH3T3 cell (setting [1]) was over 10000 nM.

As for `C=CC(=O)Nc1cc(Nc2ncc(F)c(NC3CN(S(C)(=O)=O)C3)n2)c(OC)cc1N1CCC(N(C)C)CC1` [Compound J-62], the figures for the IC50 on wild-type EGFR kinase and in the assay with NIH3T3 cell (setting [1]) were 6 nM and over 10000 nM, respectively.

`C=CC(=O)Nc1cc(Nc2nccc(OC3CN(C(=O)c4ccc(F)cc4)C3)n2)c(OC)cc1N(C)CCN(C)C` [Compound J-21]: the IC50 with NIH3T3 cell (setting [1]) was over 10000 nM.

Take `C=CC(=O)Nc1cc(Nc2nccc(OC3CCN(C(=O)OC(C)(C)C)CC3)n2)c(OC)cc1N1CCC(N(C)C)CC1` [Compound J-2, tert-butyl 4-(2-(5-acrylamido-4-(4-(dimethylamino)piperidine-1-yl)-2-methoxyphenylamino)pyrimidine-4-oxy)piperidine-1-formate]: the IC50 on wild-type EGFR kinase was 154 nM.

For `C=CC(=O)Nc1cc(Nc2nccc(OC3CN(C(=O)c4ccccc4)C3)n2)c(OC)cc1N1CCC(N(C)C)CC1` [Compound J-8, N-(5-(4-(1-benzoylaza-3-oxy)pyrimidine-2-amino)-2-(4-(dimethylamino)piperidine-1-yl)-4-methoxylphenyl)acrylamide], in the assay with NIH3T3 cell (setting [1]), the IC50 is over 10000 nM.

For `C=CC(=O)Nc1cc(Nc2ncc(F)c(O[C@@H]3CCN(C(C)=O)C3)n2)c(OC)cc1N1CCC(N(C)C)CC1` [Compound J-49], the IC50 on wild-type EGFR kinase turned out to be 259 nM.
